In patent USRE46630E1, “Substituted 4-pyridones and their use as inhibitors of neutrophil elastase activity” (Boehringer Ingelheim International GmbH, priority 2012, dated 2017):

target: T1, Human neutrophil elastase (Homo sapiens, UniProt P08246); test: Human Neutrophil Elastase Assay; type: biochemical; conditions: Neutrophil Elastase assay; substrate MeOSuc-Ala-Ala-Pro-Val-AMC 250 μM; 15 min preincubation, 60 min incubation at room temperature; pH 7.5
T1 construct: purchased Calbiochem 324681
T1 sequence (P08246 30-267): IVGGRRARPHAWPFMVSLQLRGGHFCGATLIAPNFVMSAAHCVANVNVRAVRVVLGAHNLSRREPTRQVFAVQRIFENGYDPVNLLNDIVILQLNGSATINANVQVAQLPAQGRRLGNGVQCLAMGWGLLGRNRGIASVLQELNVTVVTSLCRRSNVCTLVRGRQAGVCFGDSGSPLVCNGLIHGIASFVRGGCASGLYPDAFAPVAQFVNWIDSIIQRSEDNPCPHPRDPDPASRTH
Description: Human Neutrophil Elastase Assay
All other materials were of the highest grade commercially available.
The following buffers were used: Compound buffer: 100 mM Tris, 500 mM NaCl, adjusted to pH 7.5; Assay buffer: 100 mM Tris, 500 mM NaCl, adjusted to pH 7.5, containing 0.01% BSA.
Assay conditions: Test compounds were prediluted in DMSO and subsequently in compound buffer (5% DMSO final). […] After inactivation of the enzyme, fluorescence intensities were measured at 380 nm excitation and 460 nm emission wavelengths.
Each plate contains wells with a high value control (DMSO+enzyme+substrate) and wells with a low value control (DMSO+inactivated enzyme+substrate). […] Means of low values were taken as 0%, means of high values as 100%.

| SMILES | IC50 [nM] |
| --- | --- |
| COc1cncc(-c2c(C)n(Cc3ccc(C#N)cc3)cc(C(=O)NCc3ccc(S(C)(=O)=O)cc3)c2=O)c1 [Example 6.7] | 75.3 |
| CNC(=O)c1cn(Cc2ccc(C#N)cc2F)c(C)c(-c2cccc(C(F)F)c2)c1=O [Example 32] | 11.8 |
| Cc1c(-c2ccnc(C(F)(F)F)c2)c(=O)c(C(=O)NCC(C)C)cn1C(C)c1ccc(C#N)cc1 (stereo not drawn) [Example 9.53] | 23 |
| Cc1c(-c2cccc(C(F)(F)F)c2)c(=O)c(C(=O)NCC(F)F)cn1C(C)c1ccc(C#N)cn1 (stereo not drawn) [Example 47.19] | 10.3 |
| Cc1c(-c2cccc(C(F)(F)F)c2)c(=O)c(C(=O)NCc2ccc(S(C)(=O)=O)cc2)cn1Cc1ccc(F)cc1 [Example 2.2] | 1.9 |
| CNC(=O)c1cn(Cc2ccc(C#N)c(F)c2)c(C)c(-c2cccc(C(F)F)c2)c1=O [Example 33] | 14 |
| Cc1c(-c2cccc(C(F)(F)F)c2)c(=O)c(C(=O)NCCS(C)(=O)=O)cn1Cc1ccc(C#N)cc1 [Example 1.66] | 6.2 |
| Cc1c(-c2cccc(C(F)(F)F)c2)c(=O)c(C(=O)NC2CCC(=O)N(C)C2)cn1Cc1ccc(C#N)cc1 (stereo not drawn) [Example 1.62] | 10.4 |
| CS(=O)(=O)c1ccc(CNC(=O)c2cn(Cc3ccc(C#N)cc3)cc(-c3cccc(C(F)(F)F)c3)c2=O)cc1 [Example 13.1, 1-(4-Cyano-benzyl)-4-oxo-5-(3-trifluoromethyl-phenyl)-1,4-dihydro-pyridine-3-carboxylic acid 4-methanesulfonyl-benzylamide] | 6.6 |
| Cc1c(-c2cccc(C(F)(F)F)c2)c(=O)c(C(=O)NCCOCCOCCO)cn1Cc1ccc(C#N)cc1 [Example 1.25] | 10.9 |
| Cc1c(-c2ccccc2)c(=O)c(C(=O)NCc2ccc(S(C)(=O)=O)cc2)cn1Cc1ccc(C#N)cc1 [Example 6.1, 1-(4-Cyano-benzyl)-6-methyl-4-oxo-5-phenyl-1,4-dihydro-pyridine-3-carboxylic acid 4-methanesulfonyl-benzylamide] | 44.5 |
| CCCNC(=O)c1cn(C(C)c2ccc(C#N)cc2)c(C)c(-c2cccc(C(F)F)c2)c1=O (stereo not drawn) [Example 8.27] | 3 |
| COc1ccc(CNC(=O)c2cn(Cc3ccc(C#N)cc3)c(C)c(-c3cccc(C(F)(F)F)c3)c2=O)cn1 [Example 1.56] | 4.6 |
| Cc1c(-c2cccc(C(F)(F)F)c2)c(=O)c(C(=O)NCCN2CCNC2=O)cn1Cc1ccc(C#N)cc1 [Example 1.21] | 14.4 |
| CCNC(=O)c1cn(C(C)c2ccc(C#N)cc2)c(C)c(-c2cccc(C(F)(F)F)c2)c1=O (single isomer, unassigned) [Example 10B] | 290 |
| Cc1c(-c2cccc(C(F)(F)F)c2)c(=O)c(C(=O)NCC2(O)CC2)cn1C(C)c1ccc(C#N)cc1 (stereo not drawn) [Example 7.16] | 17.9 |
| Cc1c(-c2ccnc(C(F)(F)F)c2)c(=O)c(C(=O)NCC(F)(F)F)cn1C(C)c1ccc(C#N)cc1 (stereo not drawn) [Example 9.43] | 11.5 |
| Cc1c(-c2cccc(Cl)c2)c(=O)c(C(=O)NCc2ccc(S(C)(=O)=O)cc2)cn1Cc1ccc(C#N)cc1 [Example 6.8] | < 1 |
| Cc1c(-c2cccc(C(F)(F)F)c2)c(=O)c(C(=O)NCC2COCCO2)cn1Cc1ccc(C#N)cc1 (stereo not drawn) [Example 1.35] | 31.4 |
| Cc1c(-c2ccnc(C(F)(F)F)c2)c(=O)c(C(=O)NCC2CCO2)cn1C(C)c1ccc(C#N)cc1 (stereo not drawn) [Example 9.27] | 13.7 |
| CCNC(=O)c1cn(C(C)c2ccc(C#N)cn2)c(C)c(-c2cccc(C(F)(F)F)c2)c1=O (stereo not drawn) [Example 17, 1-[1-(5-Cyano-pyridin-2-yl)-ethyl]-6-methyl-4-oxo-5-(3-trifluoromethyl-phenyl)-1,4-dihydro-pyridine-3-carboxylic acid ethylamide] | 4.5 |
| CCNC(=O)c1cn(C(C)c2ccc(C#N)cc2)c(C)c(-c2cccc(C(F)F)c2)c1=O (stereo not drawn) [Example 8.21] | 3 |
| Cc1c(-c2cccc(C(F)(F)F)c2)c(=O)c(C(=O)NC2CC(=O)N(C)C2)cn1Cc1ccc(C#N)cc1 (stereo not drawn) [Example 1.61] | 11.4 |
| Cc1c(-c2ccnc(C(F)(F)F)c2)c(=O)c(C(=O)NCCO)cn1C(C)c1ccc(C#N)cc1 (stereo not drawn) [Example 9.9] | 7.6 |
| Cc1c(-c2cccc(C(F)F)c2)c(=O)c(C(=O)NCc2ccc(S(C)(=O)=O)cc2)cn1Cc1ccc(C#N)cn1 [Example 40, 1-(5-Cyano-pyridin-2-ylmethyl)-5-(3-difluoromethyl-phenyl)-6-methyl-4-oxo-1,4-dihydro-pyridine-3-carboxylic acid 4-methanesulfonyl-benzylamide] | < 1 |
| CCNC(=O)c1cn(C(C)c2ccc(C#N)cc2)c(C)c(-c2ccnc(C(F)(F)F)c2)c1=O (stereo not drawn) [Example 9.56] | 6.1 |
| Cc1c(-c2cccc(C(F)(F)F)c2)c(=O)c(C(=O)NCC#N)cn1C(C)c1ccc(C#N)cn1 (stereo not drawn) [Example 47.20] | 2.5 |

| SMILES | IC50 [nM] |
| --- | --- |
| Cc1c(-c2cccc(C(F)(F)F)c2)c(=O)c(C(=O)NCCCS(C)(=O)=O)cn1C(C)c1ccc(C#N)cc1 (stereo not drawn) [Example 7.3] | 1.3 |
| COC(=O)CNC(=O)c1cn(Cc2ccc(C#N)cc2)c(C)c(-c2cccc(C(F)(F)F)c2)c1=O [Example 1.63] | 22.5 |
| COCCNC(=O)c1cn(Cc2ccc(C#N)cc2)c(C)c(-c2cccc(C(F)(F)F)c2)c1=O [Example 1.5] | 10.4 |
| Cc1c(-c2ccnc(C(F)(F)F)c2)c(=O)c(C(=O)NCC2CCOC2)cn1C(C)c1ccc(C#N)cc1 (stereo not drawn) [Example 9.21] | 9.5 |
| CCNC(=O)c1cn(C(C)c2ccc(C#N)cc2)c(C)c(-c2cccc(C(F)(F)F)c2)c1=O (single isomer, unassigned) [Example 10A] | < 1 |
| Cc1cc(-c2c(C)n(Cc3ccc(C#N)cc3)cc(C(=O)NCc3ccc(S(C)(=O)=O)cc3)c2=O)ccn1 [Example 6.3] | 9.1 |
| CNC(=O)c1cn(C(C)c2ccc(C#N)cc2)c(C)c(-c2cccc(C(F)F)c2)c1=O (single isomer, unassigned) [Example 8B] | 522 |
| Cc1c(-c2cccc(C(F)F)c2)c(=O)c(C(=O)NCC[S+](C)[O-])cn1C(C)c1ccc(C#N)cc1 (stereo not drawn) [Example 8.8] | 1.1 |
| Cc1c(-c2cccc(C(F)(F)F)c2)c(=O)c(C(=O)NCc2ccc(S(C)(=O)=O)cn2)cn1Cc1ccc(Cl)cc1 [Example 4.2] | 2.1 |
| Cc1nc(CNC(=O)c2cn(C(C)c3ccc(C#N)cc3)c(C)c(-c3cccc(C(F)F)c3)c2=O)no1 (stereo not drawn) [Example 8.23] | 3.4 |
| COCC(C)(C#N)NC(=O)c1cn(C(C)c2ccc(C#N)cc2)c(C)c(-c2ccnc(C(F)(F)F)c2)c1=O (stereo not drawn) [Example 9.49] | 150 |
| CNC(=O)c1cn(Cc2ccc(Cl)cc2)c(C)c(-c2cccc(C(F)(F)F)c2)c1=O [Example 3.4] | 29.1 |
| CNC(=O)c1cn(C(C)c2ccc(C#N)cn2)c(C)c(-c2cccc(C(F)(F)F)c2)c1=O (single isomer, unassigned) [Example 15B] | 67.8 |
| Cc1c(-c2cccc(C(F)(F)F)c2)c(=O)c(C(=O)NCc2cnn(C)c2)cn1Cc1ccc(C#N)cc1 [Example 1.26] | 13.2 |
| CCC(c1ccc(C#N)cc1)n1cc(C(=O)NC)c(=O)c(-c2ccnc(C(F)(F)F)c2)c1C (stereo not drawn) [Example 36, 1-[1-(4-Cyano-phenyl)-propyl]-2-methyl-4-oxo-2′-trifluoromethyl-1,4-dihydro-[3,4′]bipyridinyl-5-carboxylic acid methylamide] | 18.4 |
| Cc1c(-c2cccc(C(F)(F)F)c2)c(=O)c(C(=O)NCc2cn(C)cn2)cn1Cc1ccc(C#N)cc1 [Example 1.31] | 13.7 |
| Cc1c(-c2cccc(C(F)F)c2)c(=O)c(C(N)=O)cn1C(C)c1ccc(C#N)cc1 (stereo not drawn) [Example 8.22] | 21.6 |
| Cc1c(-c2ccnc(C(F)(F)F)c2)c(=O)c(C(=O)NCc2ccc(S(C)(=O)=O)cc2)cn1Cc1ccc(C#N)cn1 [Example 5.1] | 2.8 |
| Cc1c(-c2ccnc(C(F)(F)F)c2)c(=O)c(C(=O)NCc2ccc(S(C)(=O)=O)cc2)cn1Cc1ccc(C#N)cc1 [Example 6.11] | < 1 |
| Cc1c(-c2cccc(C(F)(F)F)c2)c(=O)c(C(=O)NC2CCCNC2=O)cn1Cc1ccc(C#N)cc1 (stereo not drawn) [Example 1.55] | 4.9 |
| Cc1c(-c2ccnc(C(F)(F)F)c2)c(=O)c(C(=O)NCc2ccc(S(C)(=O)=O)cc2)cn1Cc1ccc(C#N)c(F)c1 [Example 5.2] | 1.2 |
| Cc1c(-c2cccc(C(F)(F)F)c2)c(=O)c(C(=O)NCC2CC[N+](C)(C)CC2)cn1Cc1ccc(C#N)cc1 [Example 12.3, 4-({[1-(4-Cyano-benzyl)-6-methyl-4-oxo-5-(3-trifluoromethyl-phenyl)-1,4-dihydro-pyridine-3-carbonyl]-amino}-methyl)-1,1-dimethyl-piperidinium chloride] | 59.7 |
| Cc1c(-c2ccnc(C(F)(F)F)c2)c(=O)c(C(=O)NCC2CC2)cn1C(C)c1ccc(C#N)cc1 (stereo not drawn) [Example 9.20] | 10.9 |
| Cc1c(-c2cccc(C(F)F)c2)c(=O)c(C(=O)NCCCO)cn1C(C)c1ccc(C#N)cc1 (stereo not drawn) [Example 8.4] | 1.8 |
| Cc1c(-c2cccc(C(F)(F)F)c2)c(=O)c(C(=O)NCc2ccc(S(C)(=O)=O)cc2)cn1Cc1ccc(C#N)c(F)c1 [Example 2.9] | < 1 |
| Cc1c(-c2cccc(C(F)(F)F)c2)c(=O)c(C(=O)NCC(C)O)cn1C(C)c1ccc(C#N)cc1 (stereo not drawn) [Example 7.13] | 4 |
| Cc1c(-c2cccc(C(F)(F)F)c2)c(=O)c(C(=O)NC(C)CO)cn1Cc1ccc(C#N)cc1 (stereo not drawn) [Example 1.22] | 44.6 |
